Measured values from patent US11718603B2, “CDK2 inhibitors” (Pfizer Inc., priority 2019, dated 2023).
Like-named read-outs stand apart in the source and are kept apart here.

Legend:
GSK3β [1] = biological target: T1, GSK3β (Homo sapiens, UniProt P49841); experiment: biochemical; details: GSK3β Ki (nM)
Description: (§1) The assay was initiated with the addition of ATP, following 15 minutes pre-incubation of enzyme and inhibitor at room temperature in the reaction mixture. The reaction was stopped after 30 minutes at room temperature by the addition of 50 μL of 80 mM EDTA.

CDK2/Cyclin E1 = CDK2/Cyclin E1 (Homo sapiens (Human), UniProt P24941); experiment: CDK2/Cyclin E1 full length mobility shift assay; type: biochemical
Description: CDK2/Cyclin E1 Full Length Mobility Shift Assay
Wild-type CDK2/wild-type full length Cyclin E1 enzyme complex was produced in-house (baculoviral expression, LJIC-2080/LJIC-2103) and phosphorylated by CDK7/Cyclin H1/Mat1 enzyme complex with CDK2:CDK7 ratio of 50:1 (concentration mg/mL) in the presence of 10 mM MgCl2 and 5 mM ATP at room temperature for one hour. […] The assay was initiated with the addition of ATP, following a fifteen minutes pre-incubation of enzyme and inhibitor at room temperature in the reaction mixture. The reaction was stopped after 45 minutes at room temperature by the addition of 50 μL of 80 mM EDTA.

GSK3β [2] = biological target: T1, GSK3β; details: read-out: GSK3β Ki
Description: as §1

| Ki (GSK3β [1]) [nM] | Ki (CDK2/Cyclin E1) [nM] | SMILES | Ki (GSK3β [2]) [nM] |
| --- | --- | --- | --- |
| 14 | 0.19 | Cc1ncc(CC(=O)Nc2cc([C@@H]3CC[C@H](OC(=O)N[C@@H]4CCOC[C@H]4C)C3)[nH]n2)s1 (single isomer, unassigned; isomer a) [Example 510, (1S,3R)-3-(3-{[(2-methyl-1,3-thiazol-5-yl)acetyl]amino}-1H-pyrazol-5-yl)cyclopentyl [(3S*,4R*)-3-methyltetrahydro-2H-pyran-4-yl]carbamate- Isomer A] | – |
| 4.74 | 1.52 | Cc1ncc(CC(=O)Nc2cc([C@@H]3CC[C@H](OC(=O)N[C@@H]4CCOC[C@H]4C)C3)[nH]n2)s1 (single isomer, unassigned; isomer b) [Example 511, (1S,3R)-3-(3-{[(2-methyl-1,3-thiazol-5-yl)acetyl]amino}-1H-pyrazol-5-yl)cyclopentyl [(3S*,4R*)-3-methyltetrahydro-2H-pyran-4-yl]carbamate- Isomer B] | – |
| – | 0.31 | Cc1ncc(CC(=O)Nc2cc([C@H]3CC[C@@H](OC(=O)NC(C)C)C3)[nH]n2)s1 [Example 2, (1R,3S)-3-(3-{[(2-methyl-1,3-thiazol-5-yl)acetyl]amino}-1H-pyrazol-5-yl)cyclopentyl propan-2-ylcarbamate] | – |
| – | – | Cc1cc(CC(=O)Nc2cc([C@H]3CC[C@@H](OC(=O)N4CCCC[C@@H]4C)C3)[nH]n2)on1 [Example 640, (1R,3S)-3-(3-{[(3-methyl-1,2-oxazol-5-yl)acetyl]amino}-1H-pyrazol-5-yl)cyclopentyl(2S)-2-methylpiperidine-1-carboxylate] | 13.3 |

| SMILES | Ki (GSK3β [1]) [nM] | Ki (CDK2/Cyclin E1) [nM] | Ki (GSK3β [2]) [nM] |
| --- | --- | --- | --- |
| CC[C@H](C)NC(=O)O[C@@H]1CC[C@H](c2cc(NC(=O)c3cc(COC)nn3C)n[nH]2)C1 [Example 14, (1R,3S)-3-[3-({[3-(methoxymethyl)-1-methyl-1H-pyrazol-5-yl]carbonyl}amino)-1H-pyrazol-5-yl]cyclopentyl (2S)-butan-2-ylcarbamate] | – | 0.27 | 294 |
| COc1ccc(CC(=O)Nc2cc([C@@H]3CC[C@H](OC(=O)N4CCC4(C)C)C3)[nH]n2)cn1 [Example 145] | – | 0.12 | – |
